# Data reported in article PMC7997574, “Lead Optimization of Benzoxazolone Carboxamides as Orally Bioavailable and CNS Penetrant Acid Ceramidase Inhibitors” (Journal of Medicinal Chemistry, 2020).
# Where “and” joins values, the source holds several entries; their conditions need not be identical. Equal values may be shown once.
# How the values were obtained:
# AC = molecular target: T1, AC (Homo sapiens, UniProt Q13510); assay: Fluorogenic hAC assay on hAC-enriched lysate of HEK293 cells; type: biochemical; design: expressed in transfected cells; conditions: hAC expressed in HEK-293 cells; read-out: hAC IC50 (μM)±SD
# T1 sequence (Q13510 22-395): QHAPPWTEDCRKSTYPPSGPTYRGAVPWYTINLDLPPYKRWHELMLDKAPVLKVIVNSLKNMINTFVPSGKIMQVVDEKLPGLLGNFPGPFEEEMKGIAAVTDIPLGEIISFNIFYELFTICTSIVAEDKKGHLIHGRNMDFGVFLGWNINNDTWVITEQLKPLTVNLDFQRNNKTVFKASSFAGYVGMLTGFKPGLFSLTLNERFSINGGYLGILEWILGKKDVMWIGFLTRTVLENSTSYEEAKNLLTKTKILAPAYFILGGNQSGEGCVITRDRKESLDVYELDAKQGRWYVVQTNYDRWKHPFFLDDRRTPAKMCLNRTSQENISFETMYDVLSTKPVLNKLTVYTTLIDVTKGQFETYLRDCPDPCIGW
# Method in brief: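 Lysosome-enriched lysate (2 μg protein) from HEK293 cells stably expressing hAC, in 25 mM NaOAc pH 4.5. Pre-incubated 10 min with compound, then incubated 3 h at 37 °C with fluorogenic substrate Rbm14–12 (5 μM final, ~KM). Fluorescence (355/460 nm) read after NaIO4 development; IC50 by nonlinear regression, mean of ≥3 experiments.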
# [1] = In vitro microsomal stability study; type: in vitro ADME; conditions: mouse liver microsomes
# Method in brief: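 Test compound at 4.6 μM final was incubated at 37 °C with mouse liver microsomes in 0.1 M Tris HCl (pH 7.4), with an NADPH/G6P/G6PDH/MgCl2 cofactor system, and sampled at 0–60 min. Parent remaining relative to t = 0 was measured by LC/MS/MS. t1/2 came from one-phase decay regression, as the mean of at least two independent experiments.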
smiles,measurement,setting,value
"CC(C)CNC(=O)n1c(=O)oc2cc(C3CCN(C)CC3)ccc21 [22m, N-Isobutyl-6-(1-methyl-4-piperidyl)-2-oxo-1,3-benzoxazole-3-carboxamide]",IC50,AC,0.166 ± 0.089 µM
same,m-LM [% at 60 min],[1]; % remaining at 60 min,76% and 80%
same,half-life at 4.6 μM,"[1]; pH 7.4, read-out: m-LM t1/2",> 1 h
